The values that follow come from patent publication US10377770B2 (Novartis AG, priority 2015, dated 2019).

For this test, the target named is C-Raf FL (full length CRAF with Y340E and Y341E activating mutations, co-expressed with h14-3-3 zeta) (Homo sapiens (Human), UniProt P04049, Y340E/Y341E). Description: In vitro Raf activity determination, AlphaScreen p-MEK readout, c-Raf (C-Raf FL). It is filed as biochemical. To be noted: c-Raf approximately 4 nM, ATP 1 μM, pre-incubation 60 minutes, reaction 1 hour. Summed up:
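Phosphorylation of kinase-dead biotinylated MEK1 (~10 nM) by C-Raf FL (~4 nM) read by AlphaScreen luminescence with anti-phospho-MEK1/2 after EDTA stop. ATP was 1 μM, with a 1 h reaction at room temperature. Compounds were pre-incubated with enzyme and substrate for 60 min in Tris/MgCl2 buffer, pH 7.5.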
On the technique in general: Alpha assays give light when donor and acceptor beads are brought close together.

pIC50: −log10 of the molar value.

Sequence of C-Raf FL (full length CRAF with Y340E and Y341E activating mutations, co-expressed with h14-3-3 zeta) (P04049 whole entry Y340E/Y341E): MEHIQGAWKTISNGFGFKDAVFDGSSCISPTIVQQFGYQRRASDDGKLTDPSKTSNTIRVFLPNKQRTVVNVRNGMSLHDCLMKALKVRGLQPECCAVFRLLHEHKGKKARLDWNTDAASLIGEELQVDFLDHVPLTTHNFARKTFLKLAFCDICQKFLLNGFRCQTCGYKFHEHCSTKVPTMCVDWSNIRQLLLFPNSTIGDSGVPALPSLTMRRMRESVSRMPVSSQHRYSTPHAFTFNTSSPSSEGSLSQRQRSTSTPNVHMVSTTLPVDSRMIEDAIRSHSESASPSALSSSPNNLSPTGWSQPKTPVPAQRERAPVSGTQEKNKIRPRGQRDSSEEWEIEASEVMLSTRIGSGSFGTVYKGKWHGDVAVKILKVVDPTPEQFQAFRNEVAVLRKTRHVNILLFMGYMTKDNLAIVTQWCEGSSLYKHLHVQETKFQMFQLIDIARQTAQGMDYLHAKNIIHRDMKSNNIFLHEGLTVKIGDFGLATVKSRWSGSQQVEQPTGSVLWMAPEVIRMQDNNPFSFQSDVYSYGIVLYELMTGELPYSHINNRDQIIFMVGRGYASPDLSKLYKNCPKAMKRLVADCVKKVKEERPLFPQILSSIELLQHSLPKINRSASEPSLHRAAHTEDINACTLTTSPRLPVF
Sequence of C-Raf FL (full length CRAF with Y340E and Y341E activating mutations, co-expressed with h14-3-3 zeta) (P63104 whole entry partner): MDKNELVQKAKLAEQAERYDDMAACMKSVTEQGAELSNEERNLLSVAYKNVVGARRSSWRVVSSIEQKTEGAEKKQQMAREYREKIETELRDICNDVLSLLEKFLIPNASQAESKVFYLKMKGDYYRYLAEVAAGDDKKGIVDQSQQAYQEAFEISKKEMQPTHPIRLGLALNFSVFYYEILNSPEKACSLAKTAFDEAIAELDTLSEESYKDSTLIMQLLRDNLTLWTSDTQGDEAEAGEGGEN

Regarding `CCN1C(=O)C(C)(C)c2nncn2-c2cc(-c3cc(NC(=O)c4cccc(C(F)(F)F)c4)cnc3C)cnc21` [Example 240, N-(5-(6-ethyl-4,4-dimethyl-5-oxo-5,6-dihydro-4H-pyrido[2,3-b][1,2,4]triazolo[4,3-d][1,4]diazepin-9-yl)-6-methylpyridin-3-yl)-3-(trifluoromethyl) benzamide], the negative-log IC50 (pIC50) is 7.97.

The compound `Cc1ncc(NC(=O)c2cccc(C(F)(F)F)c2)cc1-c1ccc2c(c1)N1CCOC[C@H]1[C@](F)(CN)C2` [Example 526, N-(5-((4aS,5R)-5-(aminomethyl)-5-fluoro-1,2,4,4a,5,6-hexahydro-[1,4]oxazino[4,3-a]quinolin-9-yl)-6-methylpyridin-3-yl)-3-(trifluoromethyl)benzamide] showed a pIC50 of 8.59.

In turn, `Cc1ncc(NC(=O)c2cccc(C(F)(F)F)c2)cc1-c1cnc2c(c1)N1CCOC[C@H]1[C@@H](CO)C2` [Example 490, N-(5-((4aR,5S)-5-(hydroxymethyl)-1,2,4,4a,5,6-hexahydro-[1,4]oxazino[4,3-a][1,5]naphthyridin-9-yl)-6-methylpyridin-3-yl)-3 - (trifluoro-methyl)benzamide] gave a negative logarithm of the IC50 (pIC50) of 9.30.

With `CCN1C(=O)[C@@H]2COCC[C@H]2c2cc(-c3cc(NC(=O)c4ccnc(C(F)(F)F)c4F)ccc3C)cnc21` [Example 253, N-(3-((4aS, 10bR)-6-ethyl-5-oxo-2,4,4a,5,6,10b-hexahydro-1H-pyrano[3,4-c][1,8]naphthyridin 9-yl)-4-methylphenyl)-3-fluoro-2-(trifluoromethyl) isonicotinamide], the pIC50 is 8.49.

As for `CCN1C(=O)[C@H]2COCC[C@@H]2c2cc(-c3cc(NC(=O)c4cccc(C(F)(F)F)c4F)cnc3C)cnc21` [Example 255, N-(5-((4aR, 10bS)-6-ethyl-5-oxo-2,4,4a,5,6,10b-hexahydro-1H-pyrano[3,4-c][1,8]naphthyridin-9-yl)-6-methylpyridin-3-yl)-2-fluoro-3-(trifluoromethyl) benzamide], the negative-log IC50 (pIC50) is 9.10.

Regarding `Cc1ccc(NC(=O)c2ccnc(C(C)(F)F)c2)cc1-c1cnc2c(c1)C1CCOCC1OC(=O)N2CCO` (stereo not drawn) [Example 332, 2-(1,1-difluoroethyl)-N-(3-((4,11b-cis)-7-(2-hydroxyethyl)-6-oxo-2,4,4a,6,7,11b-hexahydro-1H-pyrano[4,3-f]pyrido[2,3-d][1,3]oxazepin-10-yl)-4-methylphenyl) isonicotinamide], the negative-log IC50 (pIC50) is 8.68.

`Cc1ccc(NC(=O)c2ccnc(C(C)(F)F)c2)cc1-c1ccc2c(c1)N1CCOC[C@H]1C(CO)(CO)C2` (single isomer, unassigned) [Example 52] gave a pIC50 of 9.80.

With `Cc1ccc(NC(=O)c2ccnc(C(C)(F)F)c2)cc1-c1cnc2c(c1)[C@@H]1CCOC[C@H]1C(=O)N2CC(C)(C)O` [Example 287, 2-(1,1-difluoroethyl)-N-(3-((4aS,10bR)-6-(2-hydroxy-2-methylpropyl)-5-oxo-2,4,4a,5,6,10b-hexahydro-1H-pyrano[3,4-c][1,8]naphthyridin-9-yl)-4-methylphenyl) isonicotinamide], the pIC50 is 9.70.

`CCN1C[C@H]2CCOCCN2c2cc(-c3cc(NC(=O)c4ccnc(C(F)(F)F)c4)ccc3C)cnc2C1=O` [Example 505, (R)-N-(3-(7-ethyl-8-oxo-1,2,4,5,5a,6,7,8-octahydropyrido[2′, 3′:6,7][1,4]diazepino [1,2-d][1,4]oxazepin-11-yl)-4-methylphenyl)-2-(trifluoromethyl)iso-nicotinamide] gave a pIC50 of 8.44.

On to `CC(=O)N[C@H]1c2ncc(-c3cc(NC(=O)c4ccnc(C(F)(F)F)c4)ccc3C)cc2N2CCOC[C@H]2C1(C)C` [Example 529, N-(3-((4aR,6R)-6-acetamido-5,5-dimethyl-1,2,4,4a,5,6-hexahydro-[1,4]oxazino[4,3-a][1,5]naphthyridin-9-yl)-4-methylphenyl)-2-(trifluoromethyl)isonicotinamide], for which the pIC50 is 8.64.

Consider `Cc1ncc(NC(=O)c2cccc(C(F)(F)F)c2)cc1-c1ccc2c(c1)N1CCOCC[C@H]1C[C@@H]2O` [Example 447, N-(5-((5aS,7S)-7-hydroxy-1,2,5,5a,6,7-hexahydro-4H-[1,4]oxazepino [4,5-a]quinolin-10-yl)-6-methylpyridin-3-yl)-3-(trifluoro-methyl)benzamide], for which the pIC50 is 9.30.

Regarding `Cc1ccc(NC(=O)c2ccnc(C(F)(F)F)c2)cc1-c1cnc2c(c1)[C@@H]1CCOC[C@H]1C(=O)N2C(C)C` [Example 261, N-(3-((4aS, 10bR)-6-isopropyl-5-oxo-2,4,4a,5,6,10b-hexahydro-1H-pyrano[3,4-c][1,8]naphthyridin-9-yl)-4-methylphenyl)-2 (trifluoromethyl) isonicotinamide], the negative-log IC50 (pIC50) was 9.70.

The compound `Cc1ccc(NC(=O)c2ccnc(C(C)(F)F)c2)cc1-c1cnc2c(c1)C1C3COCC3C1C(=O)N2CCO` (stereo not shown) [Example 279, 2-(1,1-difluoroethyl)-N-(3-(5-(2-hydroxyethyl)-6-oxo-5,6,6a,6b,7,9,9a,9b-octahydrofuro[3′,4′: 3,4]cyclobuta[1,2-c][1,8]naphthyridin-2-yl)-4-methylphenyl) isonicotinamide] gave a negative logarithm of the IC50 (pIC50) of 9.40.

Consider `Cc1ccc(NC(=O)c2cnnc(C(F)(F)F)c2)cc1-c1ccc2c(c1)N1CCOC[C@H]1[C@](F)(CO)C2` [Example 384, N-(3-((4aS,5S)-5-fluoro-5-(hydroxymethyl)-1,2,4,4a,5,6-hexahydro-[1,4]oxazino[4,3-a]quinolin-9-yl)-4-methylphenyl)-6-(trifluoromethyl)pyridazine-4-carboxamide], for which the negative logarithm of the IC50 (pIC50) was 9.70.

Regarding `CCN1C[C@@H]2COCC[C@H]2c2cc(-c3cc(NC(=O)c4cccc(C(F)(F)F)c4)cnc3C)cnc21` [Example 295, N-(5-((4aR, 10bR)-6-ethyl-2,4,4a,5,6,10b-hexahydro-1H-pyrano[3,4-c][1,8]naphthyridin-9-yl)-6-methylpyridin-3-yl)-3-(trifluoromethyl) benzamide], the negative-log IC50 (pIC50) was 10.00.

`Cc1ccc(NC(=O)c2ccnc(C(C)(F)F)c2)cc1-c1ccc2c(c1)N1CCOC[C@@H]1C[C@]2(C)O` [Example 25, 2-(1,1-difluoroethyl)-N-(3-((4aS,6S)-6-hydroxy-6-methyl-1,2,4,4a,5,6-hexahydro-[1,4]oxazino[4,3-a]quinolin-9-yl)-4-methylphenyl)isonicotinamide] gave a negative logarithm of the IC50 (pIC50) of 9.28.

For `Cc1ccc(NC(=O)c2ccnc(C(C)(F)F)c2)cc1-c1ccc2c(c1)N1CCOC[C@@H]1C[C@@H]2O` (single isomer, unassigned) [Example 14], the pIC50 is 10.47.

Compound `CCN1C[C@H]2COCCN2c2cc(-c3cc(NC(=O)c4ccnc(C(C)(F)F)c4)ccc3C)cnc2C1=O` [Example 498, (S)-2-(1,1-difluoroethyl)-N-(3-(6-ethyl-7-oxo-1,2,4a,5,6,7-hexahydro-4H-[1,4]oxazino[4,3-a]pyrido[2,3-f][1,4]diazepin-10-yl)-4-methylphenyl)iso-nicotinamide] gave a pIC50 of 9.22.

`Cc1ccc(NC(=O)c2ccnc(C(F)(F)F)c2)cc1-c1cnc2c(c1)N1CCOCC1CC2(F)F` (racemic) [Example 111, rac-N-(3-(6,6-Difluoro-1,2,4,4a,5,6-hexahydro-[1,4]oxazino[4,3-a][1,5]naphthyridin-9-yl)-4-methylphenyl)-2-(trifluoromethyl)isonicotinamide] showed a negative logarithm of the IC50 (pIC50) of 11.27.

In turn, `Cc1ccc(NC(=O)c2ccnc(C(C)(C)C#N)c2)cc1-c1ccc2c(c1)N1CCOC[C@@H]1[C@](F)(CO)C2` [Example 401, 2-(2-cyanopropan-2-yl)-N-(3-((4aR,5S)-5-fluoro-5-(hydroxymethyl)-1,2,4,4a,5,6-hexahydro-[1,4]oxazino[4,3-a]quinolin-9-yl)-4-methylphenyl)isonicotinamide] gave a pIC50 of 9.52.

Regarding `CCN1C(=O)[C@@H]2COCC[C@H]2c2cc(-c3cc(NC(=O)c4ccnc(C(C)(C)F)c4)ccc3C)cnc21` [Example 254, N-(3-((4aS, 10bR)-6-ethyl-5-oxo-2,4,4a,5,6,10b-hexahydro-1H-pyrano[3,4-c][1,8]naphthyridin-9-yl)-4-methylphenyl)-2-(2-fluoropropan-2-yl)isonicotinamide], the negative-log IC50 (pIC50) was 9.70.

The compound `Cc1ccc(NC(=O)c2cncc(C(F)(F)F)c2)cc1-c1cc(F)c2c(c1)N1CCOC[C@@H]1[C@](F)(CO)C2` [Example 440, N-(3-((4aR,5S)-5,7-difluoro-5-(hydroxymethyl)-1,2,4,4a,5,6-hexahydro-[1,4]oxazino[4,3-a]quinolin-9-yl)-4-methylphenyl)-5-(trifluoromethyl) nicotinamide] gave a pIC50 of 9.52.

In turn, `Cc1ncc(NC(=O)c2cccc(C(F)(F)F)c2)cc1-c1cc2c(cc1F)C[C@](F)(CO)[C@H]1COCCN21` [Example 479, N-(5-((4aR,5R)-5,8-difluoro-5-(hydroxymethyl)-1,2,4,4a,5,6-hexahydro-[1,4]oxazino[4,3-a]quinolin-9-yl)-6-methylpyridin-3-yl)-3-(trifluoromethyl) benzamide] gave a pIC50 of 9.40.

Consider `Cc1ccc(NC(=O)c2ccnc(C(F)(F)F)c2)cc1-c1ccc2c(c1)N1CCOCC1CC2N` (racemic) [Example 28, (rac)-N-(3-(6-amino-1,2,4,4a,5,6-hexahydro-[1,4]oxazino[4,3-a]quinolin-9-yl)-4-methylphenyl)-2-(trifluoromethyl)isonicotinamide], for which the pIC50 is 10.23.

In the case of `Cc1ccc(NC(=O)c2ccnc(C(F)(F)F)c2)cc1-c1cnc2c(c1)N1CCOC[C@@H]1[C@H](CO)C2` [Example 494, N-(3-((4aS,5R)-5-(hydroxymethyl)-1,2,4,4a,5,6-hexahydro-[1,4]oxazino[4,3-a][1,5]naphthyridin-9-yl)-4-methyphenyl)-2-(trifluoromethyl)iso-nicotinamide], the pIC50 was 10.00.

In general, pIC50 refers to the negative decadic logarithm of the IC50, by convention in mol/L.
